Columns and labels:
C57BL/6J mice = test: In vivo antihyperglycaemic/antidiabetic activity (OGTT), acute single dose 120-min time-course; details: Mus musculus, 2 h; male C57BL/6J mice, acute single dose 0,3 mg/kg po, 120-min time-course, n = 6, Mean ± SEM; read-out: In vivo OGTT C57; % Glucose change
Method: Acute single dose 120-min time-course experiments were carried out in male C57BL/6J mice, age 8-12 weeks, bred in-house. Animals were housed in groups of 6 animals per cage, for a week, in order to habituate them to vivarium conditions (25±4° C., 60-65% relative humidity, 12: 12 h light: dark cycle, with lights on at 7.30 am). All the animal experiments were carried out according to the internationally valid guidelines following approval by the ‘Zydus Research Center animal ethical committee’.
The in-vivo glucose lowering properties of the test compounds were evaluated in C57BL/6J (mild hyperglycemic) animal models as described below. Two days prior to the study, the animals were randomized and divided into groups (n=6), based upon their fed glucose levels. On the day of experiment, food was withdrawn from all the cages, water was given ad-libitum and were kept for overnight fasting. Vehicle (normal saline)/test compounds were administered orally, on a body weight basis. Soon after the 0 min. blood collection from each animal, the subsequent blood collections were done at 30, 60 and 120 or upto 240 min., via retro-orbital route, under light ether anesthesia (Diabetes Obesity Metabolism, 7, 307, 2005; Diabetes, 52, 751, 2003).
Blood samples were centrifuged and the separated serum was immediately subjected for the glucose estimation. Serum for insulin estimation was stored at −70° C. until used for the insulin estimation. The glucose estimation was carried out with DPEC-GOD/POD method (Ranbaxy Fine Chemicals Limited, Diagnostic division, India), using Spectramax-190, in 96-microwell plate reader (Molecular devices Corporation, Sunnyvale, Calif.). […] The AUC and BCAUC obtained from graphs were analyzed for one way ANOVA, followed by Dunnett's post test, using Graph Pad prism software.

[1] = Pharmacokinetic study in Wistar rats; type: in vivo; details: rat, plasma, po; male wistar rats, 2 mg/kg orally, n = 6, Mean ± SD
Method: Pharmacokinetic Study in Wistar Rats
The pharmacokinetic parameters of test compounds were determined in male wistar rats (n=6). Briefly, test compounds were administered orally/iv on a body weight basis to overnight fasted rats. Serial blood samples were collected in microcentrifuge tubes containing EDTA at pre-dose and post-dose after compounds administration, over a period of 168 hrs. Blood was collected at various time points and centrifuged at 4° C. The obtained plasma was frozen, stored at −70° C. and the concentrations of compounds in plasma were determined by the LC-MS/MS (Shimadzu LC 1 OAD, USA), using YMC hydrosphere C18 (2.0×50 mm, 3 μm) column (YMC Inc., USA). The pharmacokinetic parameters, such as Tmax, t1/2, AUC and % F were calculated using a non-compartmental model of WinNonlin software version 5.2.1.

DPP-IV enzyme = target: T1, DPP-IV enzyme (Homo sapiens, UniProt P27487); test: In vitro DPP-IV inhibitory activity using enzymatic (fluorescence-based) assay; type: biochemical; details: soluble human DPP-IV, H-Gly-Pro-AMC 200 μM, pH 7.8, 25° C., 30 min; read-out: % In-vitro DPPIV Inhibition IC50
T1 construct: soluble human proteins (DPP-IV enzyme) produced in a baculovirus expression system; made in house; host or cells: baculovirus expression system (Life Technologies)
T1 sequence (P27487 39-766 limits assumed): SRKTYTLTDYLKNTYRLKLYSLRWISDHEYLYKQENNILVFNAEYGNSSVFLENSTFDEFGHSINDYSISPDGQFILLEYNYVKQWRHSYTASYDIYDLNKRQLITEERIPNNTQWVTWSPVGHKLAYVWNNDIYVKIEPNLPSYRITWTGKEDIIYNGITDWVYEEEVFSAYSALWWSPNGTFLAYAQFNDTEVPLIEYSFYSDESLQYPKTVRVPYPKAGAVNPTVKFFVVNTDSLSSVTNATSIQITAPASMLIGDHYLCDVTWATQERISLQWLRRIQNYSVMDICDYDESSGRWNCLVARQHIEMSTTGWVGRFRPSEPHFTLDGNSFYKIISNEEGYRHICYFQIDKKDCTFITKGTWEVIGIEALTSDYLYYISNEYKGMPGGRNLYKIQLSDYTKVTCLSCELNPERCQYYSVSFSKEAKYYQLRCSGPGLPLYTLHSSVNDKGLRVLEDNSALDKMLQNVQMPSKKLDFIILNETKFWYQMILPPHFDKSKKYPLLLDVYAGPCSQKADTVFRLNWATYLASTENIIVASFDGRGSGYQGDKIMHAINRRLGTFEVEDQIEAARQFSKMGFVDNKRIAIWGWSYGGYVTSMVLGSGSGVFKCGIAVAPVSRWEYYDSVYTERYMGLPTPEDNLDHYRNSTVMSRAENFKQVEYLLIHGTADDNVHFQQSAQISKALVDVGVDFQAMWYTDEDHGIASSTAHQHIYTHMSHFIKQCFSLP
Method: In Vitro DPP-IV Inhibitory Activity Using Enzymatic Assay:
In vitro enzyme (DPP-IV) inhibitory activity was determined using fluorescence-based assay (Anal. Biochem., 200, 352, 1992). The Gly-Pro-AMC was used as a substrate (which is cleaved by the enzymes to release the fluorescent AMC) and soluble human proteins (DPP-IV enzyme) produced in a baculovirus expression system (Life Technologies) was used as the enzyme source. The H-Gly-Pro-AMC (200 μM) was incubated with DPP-IV enzyme in the presence of various concentrations (30 & 100 nM) of test compounds. Reaction was carried out at pH 7.8 (HEPES buffer 25 mM containing 1.0% BSA, 140 mM NaCl, 16 mM MgCl2, 2.8% DMSO) in a total volume of 100 μl at 25° C. for 30 min., in the dark. Reaction was terminated with acetic acid (25 μl of 25% solution). Activity (fluorescence) was measured using Spectra Max fluorometer (Molecular Devices, Sunnyvale Calif.) by exciting at 380 nm and emission at 460 nm.

Structure (SMILES)	change in vivo at 0.3 mg/kg (C57BL/6J mice)	AUC [1]	Cmax [1]	half-life [1]	IC50 (DPP-IV enzyme)
N[C@H]1C[C@@H](N2CC3=C(C2)CS(=O)(=O)C3)CO[C@@H]1c1cc(F)ccc1F [Compound 17, 5-((3R,5S,6R)-5-amino-6-(2,5-difluorophenyl)tetrahydro-2H-pyran-3-yl)-3,4,5,6-tetrahydro-1H-thieno[3,4-c]pyrrole 2,2-dioxide]	-27.3 ± 3.3%	1550 ± 114 ng·h/mL	419 ± 45.5 ng/mL	32.5 ± 5.91 h	–
CS(=O)(=O)N1CC2CN([C@H]3CO[C@H](c4cc(F)ccc4F)[C@@H](N)C3)CC2C1 (stereo partly drawn) [Compound 1, (2R,3S,5R)-2-(2,5-difluorophenyl)-5-(5-(methylsulfonyl)-hexahydro-pyrrolo[3,4-c]pyrrol-2(1H)-yl)tetrahydro-2H-pyran-3-amine]	-22.5 ± 4.5%	888 ± 129 ng·h/mL	148 ± 34.2 ng/mL	33.3 ± 2.07 h	< 30 nM
N[C@H]1C[C@@H](N2CC3COCC3C2)CO[C@@H]1c1cc(F)ccc1F (stereo partly drawn) [Compound 3, (2R,3S,5R)-2-(2,5-difluorophenyl)-5-(tetrahydro-1H-furo[3,4-c]pyrrol-5(3H)-yl)tetrahydro-2H-pyran-3-amine]	-27.6 ± 1.6%	2970 ± 1070 ng·h/mL	301 ± 44.3 ng/mL	48.2 ± 11.1 h	< 100 nM
Cc1ccc(S(=O)(=O)N2CC3=C(CN([C@H]4CO[C@H](c5cc(F)ccc5F)[C@@H](N)C4)C3)C2)cc1 [Compound 37, (2R,3S,5R)-2-(2,5-difluorophenyl)-5-(5-tosyl-5,6-dihydropyrrolo[3,4-c]pyrrol-2(1H,3H,4H)-yl)tetrahydro-2H-pyran-3-amine]	-25.1 ± 3.2%	–	–	–	< 30 nM
N[C@H]1C[C@@H](N2CC3CN(Cc4ccccc4)CC3C2)CO[C@@H]1c1cc(F)ccc1F (stereo partly drawn) [Compound 18, (2R,3S,5R)-5-(5-benzylhexahydropyrrolo[3,4-c]pyrrol-2(1H)-yl)-2-(2,5-difluorophenyl)tetrahydro-2H-pyran-3-amine]	-12.6 ± 4%	–	–	–	< 100 nM
N[C@H]1C[C@@H](N2CC3=C(C2)CN(S(=O)(=O)c2ccc(C(F)(F)F)cc2)C3)CO[C@@H]1c1cc(F)ccc1F [Compound 40, (2R,3S,5R)-2-(2,5-difluorophenyl)-5-(5-((4-(trifluoromethyl)phenyl)sulfonyl)-5,6-dihydropyrrolo[3,4-c]pyrrol-2(1H,3H,4H)-yl)tetrahydro-2H-pyran-3-amine]	-14 ± 1.5%	–	–	–	< 30 nM
CS(=O)(=O)N1C[C@H]2CN([C@H]3CO[C@H](c4cc(F)ccc4F)[C@@H](N)C3)C[C@H]21 [Compound 19, (2R,3S,5R)-2-(2,5-difluorophenyl)-5-((1R,5S)-6-(methylsulfonyl)-3,6-diazabicyclo[3.2.0]heptan-3-yl)tetrahydro-2H-pyran-3-amine]	-20.6 ± 3%	–	–	–	< 100 nM
CS(=O)(=O)N1CC2=C(CN([C@H]3CO[C@H](c4cc(F)ccc4F)[C@@H](N)C3)C2)C1 [Compound 8, (2R,3S,5R)-2-(2,5-difluorophenyl)-5-(5-(methylsulfonyl)-5,6-dihydropyrrolo[3,4-c]pyrrol-2(1H,3H,4H)-yl)tetrahydro-2H-pyran-3-amine]	-49.1 ± 3.6%	4750 ± 647 ng·h/mL	459 ± 52.2 ng/mL	59.5 ± 6.44 h	< 10 nM

— patent US20150246025A1, “2-PHENYL-5-HETEROCYCLYL-TETRAHYDRO-2H-PYRAN-3-AMINE COMPOUNDS FOR USE IN THE TREATMENT OF DIABETES AND ITS ASSOCIATED DISORDERS” (CADILA HEALTHCARE LIMITED, priority 2012, published 2015)
